In assay [1] the test system is human tumor Tregs (TI-Tregs). In words: viability of sorted tumor Tregs vs peripheral Tregs at peripheral-Treg EC20 dose. As to conditions: at peripheral-Treg EC20 (IC20) dose; TI-Tregs from clear cell renal carcinoma expanded ex vivo. It counts as cell-based. How it is done:
To reduce study complexity and cost, the inventors first assessed the effect of a library of 1,554 FDA-approved and investigational compounds on human-derived P-Treg viability at a single, relatively large concentration (5 μM). For this screen, human P-Tregs were flow sorted, expanded ex vivo, and drug treated in a 96-well plate format (FIG. 6A). The inventors then selected 195 compounds that inhibited P-Treg viability ≥60% (FIG. 6B). To further reduce the number of candidate drugs, the inventors then generated 10-point drug response curves to identify the 48 h EC20 concentration of the 195 compounds, then selected a repertoire of 86 compounds with the lowest EC20 for efficient perturbational profile analysis in a 96-well format, when considering inclusion of vehicle controls (DMSO). As previously reported (Bush et al., 2017; Douglass et al., 2020), the 48 h EC20 (maximum sublethal) concentration was selected to effectively assess the 24 h drug mechanism of action, while reducing confounding effects arising from activation of cell stress or death pathways. Finally, the EC20 concentration of each compound was then used to perturb TI-Tregs flow-sorted from a chemo-naïve human clear cell carcinoma specimen and expanded ex vivo, into 96-well plates, followed by RNA-seq profiling using the fully automated PLATE-Seq technology (Bush et al., 2017; Douglass et al., 2020). Viability, as well as perturbational RNA-seq profiles of TI-Tregs were collected (FIGS. 6C-D). […]

Assay [2] relates to TI-Treg MR proteins (17-MR protein signature). The assay is described as follows: PLATE-Seq perturbational RNA-seq of TI-Tregs with VIPER / OncoTreat analysis. As to conditions: for patient-by-patient inhibition of TI-Treg vs P-Treg MR activity (OncoTreat): individual TI- vs. P-Treg signatures of all 36 patients. Format: cell-based, human. How it is done: To reduce study complexity and cost, the inventors first assessed the effect of a library of 1,554 FDA-approved and investigational compounds on human-derived P-Treg viability at a single, relatively large concentration (5 μM). For this screen, human P-Tregs were flow sorted, expanded ex vivo, and drug treated in a 96-well plate format (FIG. 6A). The inventors then selected 195 compounds that inhibited P-Treg viability ≥60% (FIG. 6B). To further reduce the number of candidate drugs, the inventors then generated 10-point drug response curves to identify the 48 h EC20 concentration of the 195 compounds, then selected a repertoire of 86 compounds with the lowest EC20 for efficient perturbational profile analysis in a 96-well format, when considering inclusion of vehicle controls (DMSO). As previously reported (Bush et al., 2017; Douglass et al., 2020), the 48 h EC20 (maximum sublethal) concentration was selected to effectively assess the 24 h drug mechanism of action, while reducing confounding effects arising from activation of cell stress or death pathways. Finally, the EC20 concentration of each compound was then used to perturb TI-Tregs flow-sorted from a chemo-naïve human clear cell carcinoma specimen and expanded ex vivo, into 96-well plates, followed by RNA-seq profiling using the fully automated PLATE-Seq technology (Bush et al., 2017; Douglass et al., 2020). Viability, as well as perturbational RNA-seq profiles of TI-Tregs were collected (FIGS. 6C-D). By using the differential protein activity signature in drug- vs. vehicle control-treated TI-Tregs, we identified the compounds capable of inducing the most statistically significant inactivation of TI-Treg-specific MR proteins (OncoTreat algorithm (Alvarez et al., 2018). From this analysis, 32 compounds were nominated as statistically significant inhibitors of the 17-MR protein signature (FIG. 7B), seven of which preferentially depleted TI-Treg vs. P-Treg viability in vitro (FIGS. 6C-D), and which were also found to inhibit patient-by-patient TI-Treg vs P-Treg MRs across all tumor types and nearly all patients (FIG. 6E).
Wells of drug-treated Tregs were RNA-Sequenced and each normalized with viperSignature against the internal DMSO-control wells on the same PLATE. VIPER was run on the normalized gene expression using the T-cell ARACNe network inferred from sorted bulk-RNA-Sequencing clinical data. Drugs were ranked on their overall inversion across patients of the 17-gene Master Regulator signature previously identified and validated by CRISPR (FIG. 7B), as well as on their patient-by-patient inversion of Tumor-Treg vs Peripheral-Treg protein activity signature by OncoTreat (FIG. 6E).

Assay [3] deals with MC38 syngeneic tumor model. In words: MC38 tumor growth and survival in immune-competent C57BL/6J mice. It counts as in vivo.
Experimental: 10 C57BL/6J mice per treatment arm were implanted with subcutaneous MC38 tumor cells. Treatment was initiated after 12 days of initial tumor growth, at which point mice were monitored for tumor volume until exceeding 1000 mm^3 or ulceration exceeding a diameter of 5 mm. […] Floxuridine and triapine were IP daily from day 12-18 at 1 mg/kg and 5 mg/kg, respectively, also reflecting 1/10th the standard murine dose. Mice receiving anti-PD-1 were administered anti-PD-1 IP on days 12, 15, and 18.
A further assay concerns MC38 tumors. In words: MC38 tumor growth and survival in immune-deficient NSG mice. Format: in vivo. How it is done: To assess whether low-dose gemcitabine effects were immune-mediated, we performed parallel dose titrations in immune-competent C57BL/6J mice and severely immune-deficient NSG (NOD.Cg-Prkdc^scid Il2rg^tm1Wj1/SzJ) mice lacking both innate and adaptive immunity.
To test whether immune-dependent activity could be observed in this range of concentrations, we dosed cohorts of mice with 1-10 mg/kg gemcitabine, with an additional cohort of C57BL/6J mice receiving anti-PD-1 in combination.
To further assess the doses at which gemcitabine inhibits tumor growth and the immune-mediated effects of gemcitabine, the inventors performed parallel dose titrations of Gem in immune-competent C57BL/6J mice and immune-deficient NSG (NOD.Cg-Prkdc^scid Il2rg^tm1Wjl/SzJ) mice, administering doses ranging from 0.12 mg/kg up to 120 mg/kg as shown in FIGS. 4D-E. At least 5 mice were treated per treatment arm. Doses were administered IP on days 12, 15, and 18, and treatment response was assessed by and Kaplan-Meier test (FIG. 8E).

In assay [4] the test system is TRC3 cluster Tregs (enriched for TI-Treg MRs). In words: scRNA-seq of MC38 tumor- and spleen-derived Tregs after gemcitabine. Format: in vivo, FoxP3Yfp-Cre mice. As to conditions: 24 hours after single 12 mg/kg dose.

“Also recorded” adds a separate entry of the source.

As to `O=c1[nH]c(=O)n([C@H]2C[C@H](O)[C@@H](CO)O2)cc1F` [floxuridine], the “differential TI-Treg vs. P-Treg viability reduction (toxicity)” value in assay [1] is listed as “among the top 6 inducing the most significant differential TI- vs. P-Treg viability reduction”. Also, the “patient-by-patient inhibition of TI-Treg vs P-Treg MR activity (OncoTreat)” value in assay [2] was “among the seven most significant TI-Treg MR activity inhibitors”. Further, in assay [3] (floxuridine 1 mg/kg IP daily day 12-18, alone or with anti-PD-1), the tumor growth inhibition entry is listed as “gemcitabine was the only treatment found to significantly inhibit tumor growth”.

Consider `Nc1ccn([C@@H]2O[C@H](CO)[C@@H](O)C2(F)F)c(=O)n1` [gemcitabine], for which the “differential TI-Treg vs. P-Treg viability reduction (toxicity)” value in assay [1] is “preferential cytotoxic capacity against TI-Tregs; also recorded: preferentially toxic to TI-Tregs; also recorded: among the top 6 inducing the most significant differential TI- vs. P-Treg viability reduction”. Further, the “inhibition (down-regulation) of the 17-MR TI-Treg protein activity signature” value in assay [2] (TI-Tregs treated at EC20, 24 h, drug vs DMSO, VIPER protein activity) was “inhibits transcriptional activity of TI-Treg MRs”. Besides, the “patient-by-patient inhibition of TI-Treg vs P-Treg MR activity (OncoTreat)” value in assay [2] is on record as “among the seven most significant TI-Treg MR activity inhibitors”. The “efficacy in dose titration” value in assay [3] (between 12 mg/kg and 1.2 mg/kg, C57BL/6J) is listed as “efficacy was lost”; in the assay on MC38 tumors (between 12 mg/kg and 1.2 mg/kg, NSG), “efficacy was lost”. The “dose range found to be immunogenic” value in assay [3] (dosed Q3D) was in the range of 3 to 10 mg/kg. Further, the “advantage in C57BL/6 vs NSG mice” value in assay [3] (gemcitabine 1.2 mg/kg, p=0.09) is given as “trending but non-significant advantage”. Also, in assay [3] (gemcitabine 10 mg/kg, p=0.253), the “survival C57BL/6J vs. NSG” value is recorded as “trending survival advantage”. For the same compound, the “tumor growth kinetics vs vehicle” value in assay [3] (gemcitabine 12 mg/kg IP days 12, 15, 18, late stage MC38, p=0.003) is on record as “significantly inhibit tumor growth; also recorded: significant reduction in growth kinetics”. Besides, in assay [3] (gemcitabine 12 mg/kg IP days 12, 15, 18, late stage MC38, p=0.006), the survival vs vehicle result is “prolongation of survival”. Besides, the “tumor growth relative to vehicle control” value in assay [3] (gemcitabine 120 mg/kg, C57BL/6J, p<0.001 by Cox regression) is recorded as “inhibited tumor growth”; in the assay with MC38 tumors (gemcitabine 120 mg/kg, NSG, p<0.001 by Cox regression) it was “inhibited tumor growth”. Also, in assay [3] (gemcitabine 120 mg/kg, p=0.19), the “difference between C57BL/6J and NSG strains” value is “no significant difference”. Moreover, in the assay with MC38 tumors (gemcitabine 3 mg/kg, p=0.84), the “activity in NSG mice” value is “lack any activity”. For the same compound, the TRC1 occupancy entry in assay [4] is recorded as “proportional increase”. In addition, the “change of TRC3 occupancy in spleen population” value in assay [4] (spleen) was “virtually no change”. Besides, the “TRC3 cluster frequency among TI-Tregs” value in assay [4] (tumor, vehicle 30.1%, p=1.51e-20) is reported as 14.9%.

Consider `NC(=S)N/N=C/c1ncccc1N` [triapine], for which the “differential TI-Treg vs. P-Treg viability reduction (toxicity)” value in assay [1] is listed as “among the top 6 inducing the most significant differential TI- vs. P-Treg viability reduction”. The “patient-by-patient inhibition of TI-Treg vs P-Treg MR activity (OncoTreat)” value in assay [2] is given as “among the seven most significant TI-Treg MR activity inhibitors”. In assay [3] (triapine 5 mg/kg IP daily day 12-18, alone or with anti-PD-1), the tumor growth inhibition entry is “gemcitabine was the only treatment found to significantly inhibit tumor growth”.

Values taken from patent US20240108644A1, “TUMOR IMMUNOTHERAPY” (The Trustees of Columbia University in the City of New York, priority 2021, published 2024).
